One experiment has as its system HTT. Description: Gene panel canonical junction qPCR assay, HTT CJ mRNA (Table 7). The class given is cell-based, human. The conditions noted are these: Homo sapiens, read-out: HTT CJ mRNA decrease IC50. In a few lines: (§1)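 Read-out is the IC50 for loss of canonical-junction mRNA, fitted with a four-parameter logistic curve to percentage response. Response came from RT-qPCR on compound-treated A673 or K562 cell lysates, ΔCt against a housekeeping gene and normalized to DMSO.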
For orientation: Quantitative PCR measures a nucleic acid by following its amplification.

A further experiment relates to SMN2. Description: Gene panel canonical junction qPCR assay, SMN2 CJ mRNA (Table 7). It counts as cell-based. The following applies: Homo sapiens, read-out: SMN2 CJ mRNA decrease IC50. The gist of the method: as §1
Another experiment has as its system Target C. Description: Gene panel canonical junction qPCR assay, Target C CJ mRNA (Table 7). It counts as cell-based, human. The conditions noted are these: Homo sapiens, read-out: Target C CJ mRNA decrease IC50. The gist of the method:
as §1

Experiment [1] relates to HiBit-tagged HTT in K562 cells. In words: HiBiT protein abundance assay, HTT. It counts as cell-based, human. The following applies: HiBiT-modified K562 cells, 24 hours, luminescence. As for the experimental part: (§2) Compounds described herein were used to screen for effects on quantitative protein abundance using a HiBit assay system (Promega). Quantitative protein abundance was determined by measuring the protein levels of HiBit-tagged protein targets expressed in cell culture via luminescence using the Nano-Glo HiBiT Lytic Detection System, which uses a split complementation assay format to reconstitute NanoBiT enzyme to generate a luminescent signal. A protein abundance assay was developed such that endogenous protein targets could be modified with the HiBiT peptide tag and their abundance could be assessed after compound treatment. Briefly, K562 cell lines containing a HiBiT-modification were treated with various compounds described herein (e.g., compounds of Formulas (I)). After treatment for 24 hours, the protein abundance of a specific target was determined by measuring luminescence.
(§3) Cells were maintained in IMDM with 10% FBS. Before the assay, cells were diluted with […] growth media (IMDM+[…] media) and were seeded in a 384-well plate at a density of 10000 cells/well (for each cell line listed in Table 8). Each compound was prepared as a 10-point 3-fold serial dilution in DMSO with the top dose at a final concentration of 10 μM in the well. Unmodified K562 cells were added at the previously specified density with DMSO to serve as an assay baseline and positive control (PC) and DMSO only with the respective modified cell lines was added to the negative control (NC) columns. Final DMSO concentration was kept at or below 0.25% o. Treated cell plates were placed in an incubator at 37° C. with […] for 24 hours. After 24 hours, 25 μL of Complete HiBit Lytic reagent was added to each well at room temperature (e.g. one plate requiring 10 mL Lytic Buffer, 100 μL LgBiT Protein, 200 μL Lytic Substrate), shaken for 5 minutes at 600 RPM, then left to sit for 10 minutes for signal to stabilize before reading on a Spark Cyto plate reader (Tecan) with a 500 ms measurement time.
(§4) To determine compound effects on protein abundance of each target in Table 9, the percent response for each respective cell line was calculated at each compound concentration as follows:
(§5) For the normalized response at each concentration, a four-parameter logistical regression was fit to the data and the response was interpolated at the […] to determine a concentration for protein abundance at 50% o (IC50) the untreated control.
Background: HiBiT is a short tag that completes a luciferase, so light tracks the accessible tagged protein.

Experiment [2] relates to HiBit-tagged Target C in K562 cells. Description: HiBiT protein abundance assay, Target C. The class given is cell-based, human. The conditions noted are these: HiBiT-modified K562 cells, 24 hours, luminescence. As for the experimental part: as §2, §3, §4, §5

pIC50: −log10 of the molar value. A value given as a limit tells only on which side of the number the result lay.

Consider `CN(c1ccc2c(n1)OCc1cc(-n3ccnc3)ccc1-2)[C@@H]1C[C@H]2CC[C@@H](C1)N2` [Compound 163], for which the pIC50 (in general, the IC50 on a negative log10 scale, so that one unit is a factor of ten) is more than 7.00 with HTT; more than 7.00 with SMN2; 6.00 to 7.00 in the experiment with Target C; more than 7.00 in experiment [1]; more than 7.00 in experiment [2].

On to `CN(c1ccc2c(n1)OCCc1cc(-c3cn[nH]c3)ccc1-2)C1CC(C)(C)NC(C)(C)C1` [Compound 145], for which the pIC50 in the experiment on HTT was less than 5.00; in the experiment on SMN2, 5.00 to 6.00; with Target C, 5.00 to 6.00; in experiment [1] it was 5.00 to 6.00; in experiment [2], 5.00 to 6.00.

As for `CN(c1ccc2c(n1)OCc1cc(-n3nccn3)ccc1-2)[C@@H]1C[C@H]2CC[C@@H](C1)N2` [Compound 151], the pIC50 with HTT was more than 7.00; in the experiment on SMN2, more than 7.00; in the experiment with Target C, 6.00 to 7.00; in experiment [1], more than 7.00; in experiment [2], more than 7.00.

Take `CN(c1ccc2c(c1)CCOc1cc(-n3cccn3)ccc1-2)[C@@H]1C[C@H]2CC[C@@H](C1)N2` [Compound 113]: the pIC50 (in the experiment on HTT; in the experiment with SMN2; in the experiment on Target C; in experiment [1]; in experiment [2]) was less than 5.00 each time.

On to `CC(C)Oc1cnnc(-c2ccc3c(c2)COc2nc(N4CCC(NC(C)(C)C)C4)ccc2-3)c1` (stereo not shown) [Compound 286], for which the pIC50 with HTT was less than 5.00; in the experiment with SMN2 it was less than 5.00; in the experiment on Target C, less than 5.00; in experiment [1], 5.00 to 6.00; in experiment [2], 5.00 to 6.00.

Take `CN(c1ccc2c(n1)OCc1cc(-c3ccc(=O)[nH]c3)ccc1-2)[C@@H]1C[C@H]2CC[C@@H](C1)N2` [Compound 157]: the pIC50 is 5.00 to 6.00 with HTT; 6.00 to 7.00 in the experiment on SMN2; 5.00 to 6.00 in the experiment with Target C; 6.00 to 7.00 in experiment [1]; 5.00 to 6.00 in experiment [2].

Take `CN(c1ccc2c(n1)OCc1cc(-c3cc(=O)n(C)cn3)ccc1-2)[C@@H]1C[C@H]2CC[C@@H](C1)N2` [Compound 162]: the pIC50 (in the experiment with HTT; with SMN2; in the experiment with Target C; in experiment [1]; in experiment [2]) was more than 7.00 throughout.

Turning to `COc1cc(-c2ccc3c(c2)COc2nc(N4CCN[C@@H](C)C4)ccc2-3)cnn1` [Compound 287], the pIC50 in the experiment with HTT is 6.00 to 7.00; with SMN2 it was 6.00 to 7.00; in the experiment with Target C it was 5.00 to 6.00; in experiment [1], 6.00 to 7.00; in experiment [2] it was 6.00 to 7.00.

As for `CN(c1ccc2c(n1)OCc1cc(-n3cccn3)ccc1-2)C1CC(C)(C)NC(C)(C)C1` [Compound 148], the pIC50 in the experiment with HTT was 5.00 to 6.00; in the experiment on SMN2, 6.00 to 7.00; in the experiment on Target C it was 5.00 to 6.00; in experiment [1] it was 5.00 to 6.00; in experiment [2], 5.00 to 6.00.

Regarding `CN(c1ccc2c(n1)OCc1cc(-c3cn[nH]c3)ccc1-2)C1CCNCC1` [Compound 116], the pIC50 in the experiment on HTT was 6.00 to 7.00; with SMN2, 6.00 to 7.00; in the experiment on Target C, 6.00 to 7.00; in experiment [1] it was 6.00 to 7.00; in experiment [2] it was 5.00 to 6.00.

Turning to `CN(c1ccc2c(n1)OCc1cc(-c3cnc(=O)[nH]c3)ccc1-2)[C@@H]1C[C@H]2CC[C@@H](C1)N2` [Compound 161], the pIC50 (with HTT; with SMN2; with Target C; in experiment [1]; in experiment [2]) was less than 5.00 throughout.

As to `CN(c1ccc2c(n1)OCc1cc(-c3ccc(=O)n(C)c3)ccc1-2)[C@@H]1C[C@H]2CC[C@@H](C1)N2` [Compound 158], the negative logarithm of the IC50 (pIC50) in the experiment with HTT is 6.00 to 7.00; in the experiment on SMN2, 6.00 to 7.00; in the experiment on Target C, 6.00 to 7.00; in experiment [1], more than 7.00; in experiment [2], 5.00 to 6.00.

In the case of `CN(c1ccc2c(n1)COc1cc(-n3cccn3)ccc1-2)[C@@H]1C[C@H]2CC[C@@H](C1)N2` [Compound 124], the pIC50 (with HTT; in the experiment on SMN2; with Target C; in experiment [1]; in experiment [2]) was 5.00 to 6.00 throughout.

`c1cnn(-c2ccc3c(c2)COc2nc(NC4CNC4)ccc2-3)c1` [Compound 166]: the pIC50 is less than 5.00 in the experiment on HTT; 5.00 to 6.00 in the experiment on SMN2; less than 5.00 with Target C; 5.00 to 6.00 in experiment [1]; less than 5.00 in experiment [2].

With `Cc1[nH]ncc1-c1ccc2c(c1)COc1nc(N(C)[C@@H]3C[C@H]4CC[C@@H](C3)N4)ccc1-2` [Compound 154], the pIC50 in the experiment on HTT is 6.00 to 7.00; in the experiment with SMN2, 6.00 to 7.00; in the experiment on Target C, 6.00 to 7.00; in experiment [1], more than 7.00; in experiment [2], 6.00 to 7.00.

Regarding `COc1cc(-c2ccc3c(c2)COc2nc(N4CCC(N(C)C5CCC5)C4)ccc2-3)cnn1` (stereo not shown) [Compound 307, N-cyclobutyl-1-[8-(6-methoxypyridazin-4-yl)-6H-isochromeno[3,4-b]pyridin-3-yl]-N-methylpyrrolidin-3-amine], the pIC50 in the experiment on HTT was 6.00 to 7.00; in the experiment with SMN2 it was more than 7.00; in the experiment on Target C it was 6.00 to 7.00; in experiment [1], 6.00 to 7.00; in experiment [2], 6.00 to 7.00.

Consider `CN(c1ccc2c(n1)OCc1cc(-n3cccn3)ccc1-2)[C@@H]1C[C@H]2CC[C@@H](C1)N2` [Compound 149], for which the pIC50 (in the experiment on HTT; in the experiment with SMN2; in the experiment with Target C; in experiment [1]; in experiment [2]) was 6.00 to 7.00 each time.

As for `COc1cc(-c2ccc3c(c2)COc2nc(N(C)[C@@H]4C[C@H]5CC[C@@H](C4)N5)ccc2-3)cnn1` [Compound 159], the pIC50 (in the experiment with HTT; in the experiment on SMN2; in the experiment with Target C; in experiment [1]; in experiment [2]) was more than 7.00 each time.

Take `COc1cc(-c2ccc3c(c2)COc2nc(N(C)[C@@H]4C[C@H]5CC[C@@H](C4)N5)ccc2-3)ccn1` [Compound 156]: the pIC50 in the experiment on HTT was more than 7.00; with SMN2, 6.00 to 7.00; with Target C, 6.00 to 7.00; in experiment [1] it was more than 7.00; in experiment [2], 6.00 to 7.00.

As to `c1cc2c(cc1-c1cn[nH]c1)COc1nc(N3CCC34CCNC4)ccc1-2` (stereo not shown) [Compound 207], the pIC50 in the experiment on HTT is less than 5.00; in the experiment on SMN2, less than 5.00; in the experiment with Target C, less than 5.00; in experiment [1], 5.00 to 6.00; in experiment [2], 5.00 to 6.00.

For the molecule `c1cc2c(cc1-c1cn[nH]c1)COc1nc(O[C@@H]3C[C@H]4CC[C@@H](C3)N4)ccc1-2` [Compound 218], the pIC50 in the experiment on HTT is more than 7.00; in the experiment on SMN2, more than 7.00; in the experiment with Target C, 6.00 to 7.00; in experiment [1] it was 6.00 to 7.00; in experiment [2] it was 6.00 to 7.00.

Regarding `CN(c1ccc2c(n1)OCCc1cc(-c3cn[nH]c3)ccc1-2)[C@@H]1C[C@H]2CC[C@@H](C1)N2` [Compound 146], the pIC50 is 5.00 to 6.00 in the experiment on HTT; less than 5.00 in the experiment on SMN2; less than 5.00 in the experiment on Target C; 5.00 to 6.00 in experiment [1]; 5.00 to 6.00 in experiment [2].

For the molecule `COc1cc(-c2ccc3c(c2)COc2nc(N4CCC(N(C)C)C4)ccc2-3)cnn1` (stereo not shown) [Compound 306, 1-[8-(6-methoxypyridazin-4-yl)-6H-isochromeno[3,4-b]pyridin-3-yl]-N,N-dimethylpyrrolidin-3-amine], the pIC50 in the experiment on HTT was 6.00 to 7.00; with SMN2, 6.00 to 7.00; in the experiment on Target C, 5.00 to 6.00; in experiment [1], 6.00 to 7.00; in experiment [2], 6.00 to 7.00.

(Values after US20240400584A1, “COMPOUNDS AND METHODS FOR MODULATING SPLICING” (REMIX THERAPEUTICS INC., priority 2021, published 2024).)
